Test results from the supplement of paper PMC11451515.

Legend:
Experiment in all cases: AUC of viability dose-response curve (% viability x log10 dose units); higher = less sensitive
Details in all cases: 48 h
P12-Ichikawa = tested on: P12-Ichikawa
Method in brief: (§1)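 Area under the curve was integrated by trapezoidal rule from a log-logistic fit of normalised viability, with curves exceeding full viability scaled and quality-control failures removed. The fit had four parameters over log10 doses. Viability came from CellTiter-Glo One luminescence, normalised per plate to DMSO and cell-free wells, after leukemia cells adapted to each medium (500 or 1000 cells/well, 1536-well plates) were exposed to library compounds in DMSO for 48 h at 37°C. The 11 threefold doses ran from 47 μM to 0.79 nM.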

NOMO1 = tested on: NOMO1
Method in brief: as §1

SEM cells = tested on: SEM cells
Method in brief: as §1

[1] = RPMI 5 mM glucose + 10% dialyzed FBS

Row | Structure (SMILES) | AUC of viability dose-response curve (P12-Ichikawa; HPLM + 10% dialyzed FBS) | AUC of viability dose-response curve (P12-Ichikawa; RPMI 5 mM glucose + 10% FBS) | AUC of viability dose-response curve (P12-Ichikawa; [1]) | AUC of viability dose-response curve (NOMO1; HPLM + 10% dialyzed FBS) | AUC of viability dose-response curve (NOMO1; RPMI 5 mM glucose + 10% FBS) | AUC of viability dose-response curve (NOMO1; [1]) | AUC of viability dose-response curve (SEM cells; HPLM + 10% dialyzed FBS) | AUC of viability dose-response curve (SEM cells; RPMI 5 mM glucose + 10% FBS) | AUC of viability dose-response curve (SEM cells; [1])
1 | CCC(=O)O[C@@]1([C@H](C)C[C@H]2[C@@H]3C[C@H](F)\C4=C\C(=O)\C=C/[C@]4(C)[C@@]3(F)[C@@H](O)C[C@]12C)C(=O)SCF | 342 | 292 | 290 | 455 | 465 | 439 | 328 | 325 | 280
2 | CN(C)c1nc(N(C)C)nc(N(C)C)n1 | 435 | 436 | 441 | 440 | 454 | 454 | 465 | 453 | 461
3 | O=C(Oc1ccc([N+](=O)[O-])cc1)N1CCN(Cc2cccc(Oc3ccccc3)c2)CC1 | 468 | 475 | 457 | 469 | 460 | 451 | 433 | 453 | 468
4 | COC1=CC=C(C=C1)C/2=C/OC3=CC(=CC=C3C2=O)O | 451 | 461 | 456 | 422 | 451 | 437 | 445 | 458 | 430
5 | C=C1C[C@@]2(O)O[C@@]3(C[C@H]2C(C)C)[C@@H](C)CC[C@@H]13 | 469 | 460 | 449 | 466 | 451 | 465 | – | – | –
6 | CC1=C(/C=C/C(C)=C/C=C/C(C)=C/C(=O)Nc2ccc(O)cc2)C(C)(C)CCC1 | 326 | 311 | 276 | 347 | 348 | 341 | 301 | 322 | 274
7 | Cl.Cl.Fc1ccc(C(OCCN2CCN(CCCc3ccccc3)CC2)c2ccc(F)cc2)cc1 | 470 | 467 | 465 | 438 | 457 | 446 | 460 | 458 | 458
8 | c1ccc(-c2nn3c(c2-c2ccnc4cc(OCCN5CCOCC5)ccc24)CCC3)nc1 | 438 | 420 | 448 | 450 | 467 | 471 | 458 | 468 | 472
9 | c1cc(-c2sc(-c3ccncc3)c(-c3ccncc3)c2-c2ccncc2)ccn1 | 472 | 466 | 471 | 472 | 439 | 464 | 377 | 350 | 365
10 | C[C@H]1[C@@H](CC(C[C@H]2O[C@@H]3O[C@]4(C)CC[C@H]5[C@H](C)CC[C@@H]([C@H]2C)[C@@]35OO4)C[S+](=O)([O-])c2ccc(COC(=O)N(C)C)cc2)O[C@@H]2O[C@]3(C)CC[C@H]4[C@H](C)CC[C@@H]1[C@@]24OO3 | 351 | 348 | 341 | 301 | 329 | 299 | 297 | 284 | 284
11 | CCC(CC)[C@H](NC(C)=O)[C@@H]1[C@H](O)[C@@H](C(=O)O)C[C@H]1NC(=N)N | – | – | – | 404 | 407 | 395 | 335 | 394 | 365
12 | CN1[C@@H]2CC(O)C[C@H]1[C@@H]1O[C@@H]12 (stereo not given in full) | 455 | 448 | 454 | 451 | 453 | 451 | – | – | –
13 | CN1C(=O)COc2c(C(=O)NC3CN4CCC3CC4)cc(Cl)cc21 (stereo not given) | – | – | – | 448 | 464 | 439 | 457 | 453 | 471
14 | c1cc(OCCN2CCCCC2)cc(-c2n[nH]c3ccc(-c4nc[nH]n4)cc23)c1 | – | – | – | 467 | 463 | 468 | 412 | 441 | 413
15 | O=C1[O][Pt]2([NH]C3CCCCC3[NH]2)[O]C1=O (stereo not given) | – | – | – | 400 | 403 | 419 | – | – | –
16 | C[Se]CCC(N)C(=O)O (stereo not given) | 407 | 390 | 388 | 406 | 406 | 394 | – | – | –
17 | NC/1=N/C(=O)N(/C=C1)[C@H]2CC[C@@H](CO)O2 | – | – | – | 435 | 404 | 422 | 437 | 415 | 385
18 | c1ccc2c(-c3cnn4cc(-c5ccc(N6CCNCC6)cc5)cnc34)ccnc2c1 | – | – | – | – | – | – | 355 | 379 | 394
19 | O=P(O)(O)C(O)(Cc1cccnc1)P(=O)(O)[O][Na] (stereo not given) | – | – | – | – | – | – | 411 | 409 | 406
20 | CN(C(=O)c1ccc(F)cc1C(F)(F)F)C1CCN(c2nnc(-c3ccnn3C)c3ccccc23)CC1 | 387 | 365 | 355 | – | – | – | 331 | 373 | 326
21 | CC1(C)OC/2=C(\[C@H](NCC3=CC=CC=C3)[C@@H]1O)C(=O)C4=CC=CC=C4C2=O | 424 | 397 | 416 | – | – | – | 417 | 363 | 413
22 | CCCCc1oc2ccc(NS(C)(=O)=O)cc2c1C(=O)c1ccc(OCCCN(CCCC)CCCC)cc1 | 414 | 409 | 413 | 367 | 332 | 361 | – | – | –
